# Calls of active or inactive are those of the source. No cut-off for these calls is given here.
# Experiments:
# Mus musculus [1] = assay: Memory enhancing effect in ICR mouse assessed as reversal of scopolamine-induced amnesia by measuring step-through latencies at 1 mg/kg, po administered 1 hr prior to acquisition trial measured after 24 hrs by passive avoidance test relative to control; format: functional, organism-based; design: dose 1 mg/kg
# Acetylcholinesterase = biological target: T1, Acetylcholinesterase (Mus musculus, UniProt P21836); assay: Inhibition of ICR mouse brain AChE using acetylthiocholine iodide as substrate incubated 10 mins prior to substrate addition measured after 10 mins by Ellman's method
# T1 sequence (P21836 whole entry): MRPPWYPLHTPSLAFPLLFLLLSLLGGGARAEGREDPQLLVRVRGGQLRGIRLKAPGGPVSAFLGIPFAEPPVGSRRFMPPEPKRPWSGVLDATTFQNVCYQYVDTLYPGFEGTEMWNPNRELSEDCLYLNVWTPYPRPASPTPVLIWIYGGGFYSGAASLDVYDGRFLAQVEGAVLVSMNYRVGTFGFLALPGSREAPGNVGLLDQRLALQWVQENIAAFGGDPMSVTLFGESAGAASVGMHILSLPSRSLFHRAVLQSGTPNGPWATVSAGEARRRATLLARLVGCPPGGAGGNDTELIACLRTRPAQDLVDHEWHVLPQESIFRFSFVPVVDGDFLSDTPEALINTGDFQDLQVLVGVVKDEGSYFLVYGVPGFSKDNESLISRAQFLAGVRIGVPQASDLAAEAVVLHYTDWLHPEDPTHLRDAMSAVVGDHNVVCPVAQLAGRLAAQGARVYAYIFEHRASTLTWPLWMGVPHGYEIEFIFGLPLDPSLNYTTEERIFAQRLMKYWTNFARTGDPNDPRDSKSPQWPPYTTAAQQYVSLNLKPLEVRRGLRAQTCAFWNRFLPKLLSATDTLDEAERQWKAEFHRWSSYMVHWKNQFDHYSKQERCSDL
# Mus musculus [2] = assay: Memory enhancing effect in ICR mouse assessed as reversal of scopolamine-induced amnesia by measuring step-through latencies at 0.25 to 5 mg/kg, po administered 1 hr prior to acquisition trial measured after 24 hrs by passive avoidance test; format: functional, organism-based
# Mus musculus [3] = assay: Memory enhancing effect in ICR mouse assessed as reversal of scopolamine-induced amnesia by measuring step-through latencies at 0.5 to 5 mg/kg, po after 1 hr by passive avoidance test; format: functional, organism-based
# Mus musculus [4] = assay: Memory enhancing effect in ICR mouse assessed as reversal of scopolamine-induced amnesia by measuring step-through latencies at 2 mg/kg, po administered 1 hr prior to acquisition trial measured after 24 hrs by passive avoidance test relative to control; format: functional, organism-based; design: dose 2 mg/kg
Compound,IC50 (Acetylcholinesterase) [µM],other results
O=c1ccc2cc(OCCCN3CCCC3)c(O)cc2o1,2.87,Activity (Mus musculus [1]): Active; Activity (Mus musculus [2]): Active; Activity (Mus musculus [3]): inactive
CC(C)NCCCOc1cc2ccc(=O)oc2cc1O,27,–
COc1ccc2c3c1O[C@H]1C[C@@H](O)C=C[C@@]31CCN(C)C2,–,Activity (Mus musculus [1]): Active
O=c1ccc2cc(OCCN3CCCCC3)c(O)cc2o1,12.2,–
CCN(CC)CCCOc1cc2ccc(=O)oc2cc1O,30.5,–
CCN(CC)CCOc1cc2ccc(=O)oc2cc1O,18.7,–
O=c1ccc2cc(OCCCN3CCCCC3)c(O)cc2o1,19.1,–
COc1cc2ccc(=O)oc2cc1O [SCOPOLETIN],476,–
O=c1ccc2cc(OCCN3CCCC3)c(O)cc2o1,6.85,Activity (Mus musculus [2]): Active; Activity (Mus musculus [4]): Active; Activity (Mus musculus [3]): inactive

# Source: ChEMBL document CHEMBL3112396, “Synthesis of aminoalkyl-substituted coumarin derivatives as acetylcholinesterase inhibitors” (Bioorg Med Chem, 2014)
